According to patent publication US6207399A, “Methods of determining endogenous thrombin potential (ETP) and thrombin substrates for use in said methods” (Hemker; Hendrik Coenraad, priority 1995, dated 2001):
Peptide text beside a SMILES is read from it. * marks the point of attachment. pNA = O=[N+]([O-])c1ccc(N*)cc1; Boc = CC(C)(C)OC(=O)*

What was measured:
factor Xa [1] = biological target: T1, factor Xa (Homo sapiens, UniProt P00742); experiment: Kinetic parameters of hydrolysis of the substrates by factor Xa in buffer A at 37° C. (Example 4, Table 3); format: biochemical; conditions: buffer A, 37° C., 50 nM factor Xa
T1 construct: human factor Xa samples; gift of Dr. T. Lindhout (University of Limburg, Maastricht)
Description: (§1) Kinetic parameters: The hydrolysis experiments were run in buffer A at 37° C. The liberation of p-nitroaniline was monitored at 405 nm in a dual wavelength (405-546 nm) spectrophotometer made in our workshop, using a personal computer for data recording. In a polystyrene microcuvette (total volume 500 μL), buffer A and substrate solution were added to obtain a final substrate concentration between 200 to 2000 μM. After 5 min of incubation at 37° C., enzyme solution was added to achieve a final concentration between 0.5 to 50 nM. The measurement was carried out at 37° C. in a thermostated cuvette-holder. The Michaelis constant (Km) and the catalytic constant (kcat) were obtained by measuring the initial reaction velocities at different substrate concentrations. The data obtained were fitted by linear regression on the Michaelis-Menten equation.
(§2) Kinetic parameters: The Km and kcat values for each substrate were determined at an enzyme concentration of 0.5-50 nM (thrombin) and 50 nM factor Xa. From the initial reaction velocities, measured for at least six substrate concentrations between 200 and 2000 μM, the Km and kcat values were calculated by linear regression on the Michaelis-Menten curve. Table 3 gives an overview of the kinetic parameters of the different substrates hydrolyzed by thrombin and by factor Xa in buffer A.

thrombin [2] = biological target: thrombin (Homo sapiens, UniProt P00734); experiment: Kinetic parameters of hydrolysis of the substrates by thrombin in buffer A at 37° C. (Example 4, Table 3); format: biochemical; set-up: Pure human α-thrombin; gift of Dr. T. Lindhout (University of Limburg, Maastricht); conditions: buffer A, 37° C.
Description: as §1, §2

[3] = tested on: thrombin generation in tissue factor triggered plasma; experiment: Manual determination of thrombin generation in plasma (subsampling method) and calculated prothrombinase activity; format: biochemical, human
Description: Manual determination of thrombin generation in plasma: Extrinsic pathway: To 480 μL defibrinated plasma were added: 172 μL buffer A which contains the substrate at concentrations between 0 to 2000 μM and 20 μL of a 54 μM phospholipid solution (final concentration: 1.5 μM). After incubation of 4 min at 37° C., 24 μL tissue factor (undiluted) was added. Thrombin formation started at zero time by adding 24 μL of a 0.5 M CaCl2 solution (final concentration: 16.67 mM). At regular time intervals of 12 s samples of 10 μL were subsampled as described above. From the amidolytic activities thus obtained, the thrombin generation curve can be drawn. […] Intrinsic pathway: To 480 μL defibrinated plasma were added: 168 μL buffer A which contains the substrate at concentrations between 0 to 1000 μM and 48 μL Actin FS (undiluted). This mixture was intensively mixed and incubated for 4 min at 37° C. Thrombin generation was started at zero time by adding 24 μL of a 0.5 M CaCl2 solution (final concentration: 16.67 mM).
Influence of the substrate on the prothrombinase-complex: With the obtained decay constants and from the curves obtained by the subsampling method we calculated the course of prothrombin conversion and the course of prothrombinase concentration.
Manual determination of thrombin generation in plasma: Extrinsic pathway: To 480 μL defibrinated plasma were added: 172 μL buffer A which contained the substrate at concentrations between 0 to 2000 μM and 20 μL of a 54 μM phospholipid solution (final concentration: 1.5 μM). After incubation for 4 min at 37° C., 24 μL tissue factor (undiluted) was added. Thrombin formation started at zero time by adding 24 μL of a 0.5 M CaCl2 solution (final concentration: 16.67 mM). At regular time intervals of 12 s samples of 10 μL were subsampled as described above. From the amidolytic activities thus obtained, the thrombin generation curve can be drawn.
Influence of the substrate on the prothrombinase-compzex: With the obtained decay constants and from the curves obtained by the subsampling method we calculated the course of prothrombin conversion and the course of prothrombinase concentration.

euglobulin thrombin = biological target: T2, euglobulin thrombin (Homo sapiens, UniProt P00734); experiment: Decay constants of thrombin in plasma; format: biochemical
T2 construct: The euglobulin thrombin fraction was prepared from defibrinated human plasma; from tissue; host or cells: defibrinated human plasma (euglobulin fraction, acid precipitation, method of Josso and Prou-Wartelle)
Description: (§3) To this mixture was added 10 μL of a thrombin preparation to achieve a final concentration of 100 nM. At regular time intervals (5-10 s) 10 μL samples were subsampled into 490 μL buffer B which contained 200 μM of S2238 to determine thrombin activity. After 2 min the reaction was stopped by adding 300 μL 1M citric acid. The moment of sampling and stopping were recorded on a personal computer with pushbutton-equipped pipettes. The optical density was then read at 405 nm and the obtained amidolytic activities were used to calculate the decay constants. The obtained decay constant is the sum of the decay constants of the reaction of thrombin with antithrombin III (k1) and α2 -macroglobulin (k2).
as §3, with “Decay constants of thrombin in plasma: To 120 μL defibrinated plasma was added: 50 μL of buffer A which contained the substances to be tested. To” for “To”, “was” for “was then”

factor Xa [4] = biological target: T1, factor Xa; experiment: Kinetics of hydrolysis of substrates by human factor Xa in buffer A at 37° C. (Example 2, Table 2); format: biochemical
Description: as §1, with “between 1” for “between 200”, “to 100” for “to 50”, “measuring” for “measuring the”
(§4) Kinetic parameters: In a preliminary experiment, the substrate was hydrolyzed under the following conditions: enzyme concentration: 10 to 20 nM, substrate concentration: 200 μM in buffer A to get an impression of the initial velocity. […] The results are given in table 1 and 2 for thrombin and factor Xa respectively. The Km and kcat for each substrate were determined from the initial velocities measured for at least six substrate concentrations in the concentration range as given. The enzyme concentration used gives a good signal to noise ratio. The data given are obtained from one or two experiments. The data from table 1 and 2 were only used as the first selection criterion to get a rough impression of the hydrolysis behaviour. Notwithstanding the preliminary character of the measurement it was helpful in the design of the substrates of our interest.

human α-thrombin = biological target: T3, human α-thrombin (Homo sapiens, UniProt P00734); experiment: Kinetics of hydrolysis of substrates by human α-thrombin in buffer A at 37° C. (Example 2, Table 1); format: biochemical
T3 construct: Pure human α-thrombin; gift of Dr. T. Lindhout (University of Limburg, Maastricht)
Description: as §1, with “between 1” for “between 200”, “to 100” for “to 50”, “measuring” for “measuring the”
as §4

thrombin [5] = conditions: Svendsen et al; cited from earlier work

T1 sequence (P00742 41-179 limits assumed): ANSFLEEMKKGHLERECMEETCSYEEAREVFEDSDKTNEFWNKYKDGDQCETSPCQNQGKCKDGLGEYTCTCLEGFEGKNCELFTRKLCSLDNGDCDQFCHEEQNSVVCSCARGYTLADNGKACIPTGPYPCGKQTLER
T1 sequence (P00742 235-488 limits assumed): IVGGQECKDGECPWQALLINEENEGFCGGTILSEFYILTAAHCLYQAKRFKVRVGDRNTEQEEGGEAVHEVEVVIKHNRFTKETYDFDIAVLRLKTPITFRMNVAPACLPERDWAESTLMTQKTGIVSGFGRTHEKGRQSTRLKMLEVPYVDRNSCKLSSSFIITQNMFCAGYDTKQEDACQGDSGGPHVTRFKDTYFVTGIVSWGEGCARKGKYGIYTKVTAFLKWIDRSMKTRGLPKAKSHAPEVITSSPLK

## CC(C)[C@H](NC(=O)OCCS(C)(=O)=O)C(=O)N[C@@H](CCCNC(=N)N)C(=O)Nc1ccc([N+](=O)[O-])cc1.Cl [Msc-Val-Arg-pNA.HCl]
Factor Xa [1]
  Factor Xa kcat: 4.69 s⁻¹
  Factor Xa kcat /Km: 491 M/s
  Km: 9550 µM
Thrombin [2]
  Km: 882 µM
  Thrombin kcat: 0.79 s⁻¹
  Thrombin kcat /Km: 894 M/s
[3]; [S] 200 μM
  AA: amidolytic activity (maximum): 388.15 mOD/min
  PT: prothrombinase concentration (maximum): 1119 mOD/min
  T: thrombin concentration (maximum): 371.24 mOD/min
  t: time point at which maximum of amidolytic activity is achieved: 60 s
  t: time point at which maximum of prothrombinase concentration is achieved: 24 s
  t: time point at which maximum of thrombin concentration is achieved: 60 s
[3]; [S] 200 μM in plasma
  k2,M : k2 determined by the subsampling method: 0.198 min⁻¹
[3]; [S] 500 μM
  AA: amidolytic activity (maximum): 387.15 mOD/min
  PT: prothrombinase concentration (maximum): 1090 mOD/min
  T: thrombin concentration (maximum): 374.80 mOD/min
  t: time point at which maximum of amidolytic activity is achieved: 60 s
  t: time point at which maximum of prothrombinase concentration is achieved: 24 s
  t: time point at which maximum of thrombin concentration is achieved: 60 s
[3]; [S] 500 μM in plasma
  k2,M : k2 determined by the subsampling method: 0.178 min⁻¹
[3]; [S] 1000 μM
  AA: amidolytic activity (maximum): 456.42 mOD/min
  PT: prothrombinase concentration (maximum): 1346 mOD/min
  T: thrombin concentration (maximum): 443.82 mOD/min
  t: time point at which maximum of amidolytic activity is achieved: 60 s
  t: time point at which maximum of prothrombinase concentration is achieved: 24 s
  t: time point at which maximum of thrombin concentration is achieved: 60 s
[3]; [S] 1000 μM in plasma
  k2,M : k2 determined by the subsampling method: 0.144 min⁻¹
[3]; calculated from decay constants and manual thrombin generation curves
  influence on the prothrombinase complex / coagulation cascade: no inhibition of the prothrombinase activity
Euglobulin thrombin; [S] 200 μM in plasma
  (k1,corr) = k1,corr divided by μM AT-III: 18300 M⁻¹ s⁻¹
  k1,corr : k1 after correcting for k2,M and 0.170: 1.590 min⁻¹
  k1 : AT-III dependent decay of thrombin: 1.729 min⁻¹
  k2 : α2 M dependent decay of thrombin: 0.229 min⁻¹
  koverall: 1.958 min⁻¹
  t1/2: 21.24 s
Euglobulin thrombin; [S] 500 μM in plasma
  (k1,corr) = k1,corr divided by μM AT-III: 16600 M⁻¹ s⁻¹
  k1,corr : k1 after correcting for k2,M and 0.170: 1.444 min⁻¹
  k1 : AT-III dependent decay of thrombin: 1.614 min⁻¹
  k2 : α2 M dependent decay of thrombin: 0.178 min⁻¹
  koverall: 1.792 min⁻¹
  t1/2: 23.22 s
Euglobulin thrombin; [S] 1000 μM in plasma
  (k1,corr) = k1,corr divided by μM AT-III: 9100 M⁻¹ s⁻¹
  k1,corr : k1 after correcting for k2,M and 0.170: 0.790 min⁻¹
  k1 : AT-III dependent decay of thrombin: 0.980 min⁻¹
  k2 : α2 M dependent decay of thrombin: 0.124 min⁻¹
  koverall: 1.104 min⁻¹
  t1/2: 37.70 s

## CC(C)[C@H](NC(=O)CNC(=O)OC(C)(C)C)C(=O)N[C@@H](CCCNC(=N)N)C(=O)Nc1ccc([N+](=O)[O-])cc1.Cl [Boc-Gly-Val-Arg-pNA.HCl] (Boc-Gly-Val-Arg-pNA)
Factor Xa [1]
  Factor Xa kcat: 3.51 s⁻¹
  Factor Xa kcat /Km: 1310 M/s
  Km: 2680 µM
Factor Xa [4]
  Km: 959 µM
  kcat: 1.90 s⁻¹
  kcat /Km: 1980 M/s
Thrombin [2]
  Km: 244 µM
  Thrombin kcat: 11.2 s⁻¹
  Thrombin kcat /Km: 45900 M/s
Human α-thrombin
  Km: 244 µM
  kcat: 11.2 s⁻¹
  kcat /Km: 45900 M/s

## CC(C)[C@H](NC(=O)CN)C(=O)N[C@@H](CCCNC(=N)N)C(=O)Nc1ccc([N+](=O)[O-])cc1.Cl.Cl [2HCl.H-Gly-Val-Arg-pNA] (H-Gly-Val-Arg-pNA)
Factor Xa [1]
  Factor Xa kcat: 2.84 s⁻¹
  Factor Xa kcat /Km: 649 M/s
  Km: 4380 µM
Factor Xa [4]
  Km: 2680 µM
  kcat: 3.51 s⁻¹
  kcat /Km: 1310 M/s
Thrombin [2]
  Km: 3230 µM
  Thrombin kcat: 25.4 s⁻¹
  Thrombin kcat /Km: 7880 M/s
Human α-thrombin
  Km: 1640 µM
  kcat: 16.54 s⁻¹
  kcat /Km: 10100 M/s

## CC(C)[C@H](NC(=O)[C@@H](N)Cc1ccccc1)C(=O)N[C@@H](CCCNC(=N)N)C(=O)Nc1ccc([N+](=O)[O-])cc1 [H-Phe-Val-Arg-p-nitroanilide] (H-Phe-Val-Arg-pNA)
Thrombin [5]
  factor by which poorer substrate for thrombin than Benzoyl-Phe-Val-Arg-p-nitroanilide: ≥ 100
